Data reported in US20140243418A1, “RASAGILINE FOR PARKINSON'S DISEASE MODIFICATION” (Teva Pharmaceutical Industries, Ltd., priority 2008, published 2014).
Values joined by “and” are separate entries in the source; they are usually repeats but may differ in a detail not shown here. Identical values can stand only once. Like-named read-outs stand apart in the source and are kept apart here.

Tested on: Early Stage PD patients
Details: for 1 mg Early-Delayed Start Slope Difference, Estimate / 2 mg Early-Delayed Start Slope Difference, Estimate / 1 mg-Placebo Slope Difference, Estimate / 2 mg-Placebo Slope Difference, Estimate: Total UPDRS slopes; for 1 mg Early-Delayed Start Slope Difference, Estimate / 2 mg Early-Delayed Start Slope Difference, Estimate: Active Phase weeks 48-72, non-inferiority margin 0.15; for 1 mg Early-Delayed Start Slope Difference, Estimate / 1 mg-Placebo Slope Difference, Estimate / 1 mg-Placebo Week 36-12, Estimate / 1 mg Early-Delayed Start at week 72, Estimate: rasagiline 1 mg; for 2 mg Early-Delayed Start Slope Difference, Estimate / 2 mg-Placebo Slope Difference, Estimate / 2 mg-Placebo Week 36-12, Estimate / 2 mg Early-Delayed Start at week 72, Estimate: rasagiline 2 mg; for 1 mg-Placebo Slope Difference, Estimate / 2 mg-Placebo Slope Difference, Estimate: PC phase weeks 12-36, model that assumes linearity; for 1 mg-Placebo Week 36-12, Estimate / 2 mg-Placebo Week 36-12, Estimate: Total UPDRS, PC phase, alternative categorical model that compares week 36 to week 12; for outcome of the primary analysis (three hierarchal endpoints): both doses, post-hoc; for 1 mg Early-Delayed Start at week 72, Estimate / 2 mg Early-Delayed Start at week 72, Estimate: change from baseline in Total UPDRS, end of the Active Phase
Method: 1 mg/day rasagiline during Phase I and Phase II; • Group 2. 2 mg/day rasagiline during Phase I and Phase II; • Group 3. placebo during Phase I followed by 1 mg/day rasagiline during Phase II; and • Group 4. placebo during Phase I followed by 2 mg/day rasagiline during Phase II.
Thus, ‘early-start’ patients receive 72 weeks of treatment with rasagiline (1 or 2 mg once daily) and ‘delayed-start’ patients receive 36 weeks of placebo followed by 36 weeks of rasagiline (1 or 2 mg once daily). […] If subjects in either treatment group required additional anti-parkinsonian medication during the placebo-controlled stage of the trial, they could proceed directly to Phase II. Once in Phase II, no additional anti-PD therapy is permitted. If the patient requires additional medication in this stage they are discontinued from the study.
1 mg/day rasagiline during Phase I and Phase II (1 mg early start) • 2. 2 mg/day rasagiline during Phase I and Phase II (2 mg early start) • 3. placebo during Phase I followed by 1 mg/day rasagiline during Phase II (1 mg delayed start) • 4. placebo during Phase I followed by 2 mg/day rasagiline during Phase II (2 mg delayed start)
If, at any stage during the placebo-controlled phase the investigator determines that a subject needs additional anti-PD therapy, the subject will proceed to Phase II of the study. The investigator, aided by a questionnaire, will give careful consideration to the issue of a subject's need for additional anti-PD therapy. Scheduled in-clinic visits will be conducted at baseline and at weeks 4, 12, 24 and 36. Therefore, altogether there will be 5 scheduled visits during this phase. Unscheduled visits may be conducted at any time to assess a subject's need for additional anti-PD therapy, for safety reasons or for any other reason.
Thus, subjects who receive 1 mg rasagiline during Phase I will continue to receive 1 mg during Phase II, subjects who receive 2 mg rasagiline during Phase I will continue to receive 2 mg during Phase II, and subjects who receive placebo during Phase I will receive either 1 mg or 2 mg rasagiline during Phase II. The study blind will be maintained. No additional anti-PD therapy will be permitted during this phase. This applies to both the subjects who enter Phase II after completing the full 36-week duration of Phase I and to subjects who are switched from Phase I to Phase II because of a need of additional anti-PD therapy. If, the investigator determines that a subject needs additional anti-PD therapy during Phase II, the subject will be prematurely withdrawn from the study. The investigator, aided by a questionnaire, will give careful consideration to the issue of a subject's need for additional anti-PD therapy. Scheduled in-clinic visits will be conducted every 6 weeks. Therefore, altogether there will be 6 visits during this phase—at weeks 42, 48, 54, 60, 66 and 72. Unscheduled visits may be conducted at any time to assess a subject's need for additional anti-PD therapy, for safety reasons or for any other reason.

[1] = rasagiline 1 mg/day delayed-start, Baseline UPDRS > 25.5 (Upper Quartile)
[2] = rasagiline 1 mg/day delayed-start, Baseline UPDRS ≦ 25.5 (Lower 3 Quartiles)
[3] = rasagiline 1 mg/day delayed-start, all subjects
[4] = rasagiline 1 mg/day delayed-start, all subjects, listed as Rasagiline
[5] = rasagiline 1 mg/day early-start minus delayed-start, Baseline UPDRS > 25.5 (Upper Quartile)
[6] = rasagiline 1 mg/day early-start minus delayed-start, Baseline UPDRS ≦ 25.5 (Lower 3 Quartiles)
[7] = rasagiline 1 mg/day early-start, Baseline UPDRS > 25.5 (Upper Quartile)
[8] = rasagiline 1 mg/day early-start, Baseline UPDRS ≦ 25.5 (Lower 3 Quartiles)
[9] = rasagiline 1 mg/day early-start, all subjects
[10] = rasagiline 1 mg/day early-start, all subjects, listed as Rasagiline

SMILES: C#CCN[C@@H]1CCc2ccccc21 [rasagiline]
- Disease modifying effect (1 mg treatment, according to FDA requirements as predefined in the statistical analysis plan): demonstrated
- Disease modifying effect (2 mg treatment): not evident
- symptomatic effect observed in TEMPO (ADAGIO placebo controlled (PC) phase, rasagiline 1 mg and 2 mg versus placebo): replicated
- change in Total UPDRS score at week 72 (Early Stage PD patients, dose not stated): 2.8
- rate of progression of PD (Early Stage PD patients, improved from 0.139, dose not stated): 0.066 score (change in Total UPDRS)/week
- 1 mg Early-Delayed Start Slope Difference, Estimate (ACTE): 0.000
- 1 mg Early-Delayed Start Slope Difference, Estimate (CO): −0.011
- 1 mg Early-Delayed Start Slope Difference, Estimate (PP): −0.011
- 2 mg Early-Delayed Start Slope Difference, Estimate (ACTE): 0.029
- 2 mg Early-Delayed Start Slope Difference, Estimate (CO): 0.021
- 2 mg Early-Delayed Start Slope Difference, Estimate (PP): 0.022
- 1 mg-Placebo Slope Difference, Estimate (CO data analysis set): −0.033
- 1 mg-Placebo Slope Difference, Estimate (ITT data analysis set): −0.046
- 1 mg-Placebo Slope Difference, Estimate (PP data analysis set): −0.037
- 2 mg-Placebo Slope Difference, Estimate (CO data analysis set): −0.061
- 2 mg-Placebo Slope Difference, Estimate (ITT data analysis set): −0.072
- 2 mg-Placebo Slope Difference, Estimate (PP data analysis set): −0.065
- 1 mg-Placebo Week 36-12, Estimate (CO): −0.799
- 1 mg-Placebo Week 36-12, Estimate (ITT): −1.043
- 1 mg-Placebo Week 36-12, Estimate (PP): −0.873
- 2 mg-Placebo Week 36-12, Estimate (CO): −1.463
- 2 mg-Placebo Week 36-12, Estimate (ITT): −1.668
- 2 mg-Placebo Week 36-12, Estimate (PP): −1.553
- difference in change in Total UPDRS score vs delayed treatment, maintained (between Week 48 and Week 72, dose not stated): 1.7 score
- outcome of the primary analysis (three hierarchal endpoints) (lower three quartiles of baseline UPDRS scores (≦25.5)): neither dose met all of the primary endpoints
- outcome of the primary analysis (three hierarchal endpoints) (upper quartile of baseline total UPDRS (>25.5)): met all 3 primary endpoints
- 1 mg Early-Delayed Start at week 72, Estimate (ACTE data analysis set): −1.680
- 1 mg Early-Delayed Start at week 72, Estimate (CO data analysis set): −1.592
- 1 mg Early-Delayed Start at week 72, Estimate (PP data analysis set): −1.594
- 2 mg Early-Delayed Start at week 72, Estimate (ACTE data analysis set): 0.356
- 2 mg Early-Delayed Start at week 72, Estimate (CO data analysis set): −0.088
- 2 mg Early-Delayed Start at week 72, Estimate (PP data analysis set): −0.024
- reduction in Total UPDRS score at week 72 (corresponding to change of 2.8 at week 72): 62.2%
- duration for which benefits of early treatment are sustained (early treatment vs later initiation): at least 18 months
- Primary 2: estimated change in total UPDRS from baseline to week 72 [1]: 5.41
- Primary 3: rate of change in UPDRS, weeks 48-72 [1]: 0.095 UPDRS units/wk
- Primary 2: estimated change in total UPDRS from baseline to week 72 [2]: 4.03
- Primary 3: rate if change in UPDRS, weeks 48-72 [2]: 0.08 UPDRS units/wk
- Primary 2: estimated change in total UPDRS from baseline to week 72 [3]: 4.50
- Primary 3: rate of change in UPDRS, weeks 48-72 [3]: 0.085 UPDRS units/wk
- Primary 2: estimated change in total UPDRS from baseline to week 72 [4]: 4.52±0.56
- Primary 3: rate of change in UPDRS, weeks 48-72 [4]: 0.085±0.02 UPDRS units/wk
- Primary 2: estimated change in total UPDRS from baseline to week 72, early-start-delayed-start [5]: −3.40±1.66 and −3.40
- Primary 3: rate of change in UPDRS, weeks 48-72, early-start-delayed-start [5]: −0.02 UPDRS units/wk
- Primary 2: estimated change in total UPDRS from baseline to week 72, early-start-delayed-start [6]: −1.08
- Primary 3: rate if change in UPDRS, weeks 48-72, early-start-delayed-start [6]: 0.004 UPDRS units/wk
- Primary 2: estimated change in total UPDRS from baseline to week 72, early-start-delayed-start (rasagiline 1 mg/day early-start minus delayed-start, all subjects): −1.68±0.75 and −1.68
- Primary 3: rate of change in UPDRS, weeks 48-72, early-start-delayed-start (rasagiline 1 mg/day early-start minus delayed-start, all subjects, non-inferiority margin 0.15): 0.00 UPDRS units/wk
- Primary 2: estimated change in total UPDRS from baseline to week 72 [7]: 2.01
- Primary 3: rate of change in UPDRS, weeks 48-72 [7]: 0.075 UPDRS units/wk
- Primary 2: estimated change in total UPDRS from baseline to week 72 [8]: 2.94
- Primary 3: rate if change in UPDRS, weeks 48-72 [8]: 0.09 UPDRS units/wk
- Primary 2: estimated change in total UPDRS from baseline to week 72 [9]: 2.82
- Primary 3: rate of change in UPDRS, weeks 48-72 [9]: 0.085 UPDRS units/wk
- Primary 2: estimated change in total UPDRS from baseline to week 72 [10]: 2.82±0.53
- Primary 3: rate of change in UPDRS, weeks 48-72 [10]: 0.085±0.02 UPDRS units/wk
